According to US8859545B2, “Tetrahydronaphthyridine and tetrahydropyrido[4,3-D]pyrimidine compounds and compositions thereof useful for the treatment of inflammatory and respiratory diseases” (Evotec AG, priority 2005, dated 2014):
Where a name gives a salt, the structure may show the parent alone.

System: P2X2/3 chimera (P2X2/3C)
Experiment: Calcium uptake assay (P2X antagonist assay, agonist-induced calcium influx)
Type: cell-based
Conditions: at 3 μM (symbol before the slash)
From the text: Human P2X3 (Accession no. NM_002559), P2X2 (Accession no. NM_170682) and Rat P2X3 (Accession no. NM_031075) and P2X2 (Accession no. NM_053656) are cloned into a mammalian expression vector (e.g., pcDNA5/TO or pcDNA3 Invitrogen). For coexpression of P2X2 and P2X3, the coding regions of both receptors were cloned into a bicistronic vector using methods similar to those described by Kawashima et al., Receptors Channels 5:53-60, 1998. The P2X2/3 chimera clone was created as described by Neelands et al, and then cloned into an expression vector as above. Receptors are expressed in cells (e.g., HEK293 or 1321N1) via transient transfection using standard lipid mediated transfection, or by creation of stable transfectants for each receptor. Cell lines are maintained in DMEM+5% Glutamax, the appropriate level of selective antibiotic, and 10% heat inactivated FBS.
The agonist EC50 is determined at the start of the assay and compound IC50 experiments are run using a set agonist concentration (EC50-90 depending on cell line) as stimulus. The agonists used are αβMeATP, ATP, or other ATP analogs. Compounds may be tested at concentrations ranging from 1 μM to 10 μM. Functional activity of compounds at the P2X receptor is determined by measuring their ability to inhibit agonist-induced calcium influx. Compounds may be tested for antagonist activity against the P2X2/3 chimera, the P2X3 homomer, or the P2X2/3 heteromer. To test for antagonist activity, cells expressing the appropriate receptor are seeded onto 96 or 384 well plates 18-24 hours prior to assay. On the day of the assay, cells are loaded with calcium-sensitive fluorescent dye (e.g., Fluo-4 no wash reagent-Invitrogen cat# F36206, or the BD™ PBX Calcium Assay Kit-BD cat#640175) in Hank's Buffered Salt Solution (HBSS) with up to 10 mM supplemental CaCl2. Plates are incubated at 37° C. and then equilibrated at room temperature. Antagonism of agonist-induced calcium influx is measured using a fluorescent imaging plate reader. The assay comprises two stages: a pre-treatment phase followed by a treatment phase. Compounds may be tested as follows: For the pre-treatment phase, 50 μL of 3× concentration of test compound in HBSS is added to cells containing 100 μL of dye loading media to achieve a final concentration of 1×. For the treatment phase, at a set interval after pre-treatment, 50 μL of 1× test compound plus 4× agonist solution is added to cells. Fluorescence is measured at 0.1-3 second intervals with an excitation wavelength of 494 nm and an emission wavelength of 515 nm. Responses are measured as peak fluorescence after compound-agonist addition minus baseline fluorescence prior to treatment. Percent inhibition is calculated as follows: […]
A calcium uptake assay was performed as described in paragraphs […] above.

Structure (SMILES) | Ca Influx P2X2/3C % Inhibition at 3 μM/10 μM
Clc1cccnc1N1CCc2ncnc(Nc3ccccc3)c2C1 [Compound 2, 6-(3-Chloropyridin-2-yl)-5,6,7,8-tetrahydro-N-phenylpyrido[4,3-d]pyrimidin-4-amine] | +/ (compound exhibited 0-25% inhibition at 3 μM)
O=S(=O)(c1ccc(Nc2ncnc3c2CN(c2ncccc2Cl)CC3)cc1)C(F)(F)F [Compound 6, 6-(3-Chloropyridin-2-yl)-5,6,7,8-tetrahydro-N-(4-(trifluoromethylsulfonyl)phenyl)pyrido[4,3-d]pyrimidin-4-amine] | +/ (compound exhibited 0-25% inhibition at 3 μM)
CN1CC(C)(C)c2ccc(Nc3ncnc4c3CN(c3ncccc3Cl)CC4)cc21 [Compound 16, [6-(3-Chloro-pyridin-2-yl)-5,6,7,8-tetrahydro-pyrido[4,3-d]pyrimidin-4-yl]-(3,3-dimethyl-2,3-dihydro-1-methyl-indol-6-yl)-amine] | +/ (compound exhibited 0-25% inhibition at 3 μM)
Cc1ccc(N2CCc3ncnc(NCc4ccc(Cl)cc4)c3C2)nc1 [Compound 25] | ++++/ ^ (compound exhibited 75% or greater inhibition at 3 μM)
COc1cccc(CNc2ncnc3c2CN(c2ccc(C)cn2)CC3)c1 [Compound 28] | ++++ (compound exhibited 75% or greater inhibition at 3 μM)
Cc1ccc(N2CCc3ncnc(NCc4ccccc4Cl)c3C2)nc1 [Compound 30] | ++++/ ^ (compound exhibited 75% or greater inhibition at 3 μM)
Cc1ccc(N2CCc3ncnc(NCCc4ccccc4Cl)c3C2)nc1 [Compound 32] | ++++ (compound exhibited 75% or greater inhibition at 3 μM)
COc1ccc(CCNc2ncnc3c2CN(c2ccc(C)cn2)CC3)cc1 [Compound 35] | ++++/ ^ (compound exhibited 75% or greater inhibition at 3 μM)
Cc1ccc(N2CCc3ncnc(N(C)Cc4ccccc4)c3C2)nc1 [Compound 36] | +/ (compound exhibited 0-25% inhibition at 3 μM)
Cc1ccc(N2CCc3ncnc(NCc4ccc5c(c4)OCO5)c3C2)nc1 [Compound 37] | ++++/ ^ (compound exhibited 75% or greater inhibition at 3 μM)
Cc1ccc(N2CCc3ncnc(NCc4cccc(C(F)(F)F)c4)c3C2)nc1 [Compound 38] | +++/ ^ (compound exhibited 50-75% inhibition at 3 μM)
Cc1ccc(N2CCc3ncnc(NCc4ccccc4C(F)(F)F)c3C2)nc1 [Compound 39] | +++/ ^ (compound exhibited 50-75% inhibition at 3 μM)
Cc1ccc(N2CCc3ncnc(NCc4ccc(OC(F)(F)F)cc4)c3C2)nc1 [Compound 40] | +++/ ^ (compound exhibited 50-75% inhibition at 3 μM)
Cc1ccc(N2CCc3ncnc(NCc4ccccc4OC(F)(F)F)c3C2)nc1 [Compound 42] | ++++/ ^ (compound exhibited 75% or greater inhibition at 3 μM)
Cc1ccc(N2CCc3ncnc(NCc4ccc(C(C)(C)C)cc4)c3C2)nc1 [Compound 44] | +/ (compound exhibited 0-25% inhibition at 3 μM)
Cc1ccc(N2CCc3ncnc(NCCc4ccccc4)c3C2)nc1 [Compound 45] | ++++/ ^ (compound exhibited 75% or greater inhibition at 3 μM)
COc1cccc(CCNc2ncnc3c2CN(c2ccc(C)cn2)CC3)c1 [Compound 46] | ++++/ ^ (compound exhibited 75% or greater inhibition at 3 μM)
COc1ccc(CCNc2ncnc3c2CN(c2ccc(C)cn2)CC3)cc1OC [Compound 47] | +++/ ^ (compound exhibited 50-75% inhibition at 3 μM)
Cc1ccc(N2CCc3ncnc(NCCc4ccc(Cl)cc4)c3C2)nc1 [Compound 48] | ++++/ ^ (compound exhibited 75% or greater inhibition at 3 μM)
Cc1ccc(CCNc2ncnc3c2CN(c2ccc(C)cn2)CC3)cc1 [Compound 49] | ++++/ ^ (compound exhibited 75% or greater inhibition at 3 μM)
Cc1ccc(N2CCc3ncnc(NCc4ccc(C(F)(F)F)cc4)c3C2)nc1 [Compound 50] | ++++/ ^ (compound exhibited 75% or greater inhibition at 3 μM)
COc1cc(CCNc2ncnc3c2CN(c2ccc(C)cn2)CC3)cc(OC)c1 [Compound 51] | +++/ ^ (compound exhibited 50-75% inhibition at 3 μM)
Cc1ccc(N2CCc3ncnc(NCc4ccccc4OC(F)F)c3C2)nc1 [Compound 52] | ++++/ ^ (compound exhibited 75% or greater inhibition at 3 μM)
COc1ccc(CNc2ncnc3c2CN(c2ccc(C)cn2)CC3)cc1 [Compound 53] | ++++/ ^ (compound exhibited 75% or greater inhibition at 3 μM)
Cc1ccc(N2CCc3ncnc(NCCc4ccc(Cl)c(Cl)c4)c3C2)nc1 [Compound 54] | +++/ ^ (compound exhibited 50-75% inhibition at 3 μM)
Cc1ccc(N2CCc3ncnc(NCc4cccc(Cl)c4)c3C2)nc1 [Compound 55] | ++++/ ^ (compound exhibited 75% or greater inhibition at 3 μM)
Cc1ccc(CNc2ncnc3c2CN(c2ccc(C)cn2)CC3)cc1 [Compound 56] | ++++/ ^ (compound exhibited 75% or greater inhibition at 3 μM)

Same assay, conditions: at 10 μM (symbol after the slash)

Structure (SMILES) | Ca Influx P2X2/3C % Inhibition at 3 μM/10 μM
FC(F)(F)c1ccc(Nc2ncnc3c2CN(c2ncccc2Cl)CC3)cn1 [Compound 4, 6-(3-Chloropyridin-2-yl)-N-(6-(trifluoromethyl)pyridin-3-yl)-5,6,7,8-tetrahydropyrido[4,3-d]pyrimidin-4-amine] | /* (compound exhibited 0-25% inhibition at 10 μM)
Cc1ccccc1N1CCc2ncnc(Nc3ccc(C(F)(F)F)cc3)c2C1 [Compound 10, N-(4-(Trifluoromethyl)phenyl)-5,6,7,8-tetrahydro-6-o-tolylpyrido[4,3-d]pyrimidin-4-amine] | /* (compound exhibited 0-25% inhibition at 10 μM)
Cc1ccc(N2CCc3ncnc(Nc4ccc(C(F)(F)F)cc4)c3C2)cc1 [Compound 12, N-(4-(Trifluoromethyl)phenyl)-5,6,7,8-tetrahydro-6-p-tolylpyrido[4,3-d]pyrimidin-4-amine] | /* (compound exhibited 0-25% inhibition at 10 μM)
CC1(C)C(=O)Nc2cc(Nc3ncnc4c3CN(c3ncccc3Cl)CC4)ccc21 [Compound 13, 6-[6-(3-Chloro-pyridin-2-yl)-5,6,7,8-tetrahydro-pyrido[4,3-d]pyrimidin-4-ylamino]-3,3-dimethyl-1,3-dihydro-indol-2-one] | /* (compound exhibited 0-25% inhibition at 10 μM)
CC1(C)CNc2cc(Nc3ncnc4c3CN(c3ncccc3Cl)CC4)ccc21 [Compound 15, [6-(3-Chloro-pyridin-2-yl)-5,6,7,8-tetrahydro-pyrido[4,3-d]pyrimidin-4-yl]-(3,3-dimethyl-2,3-dihydro-1H-indol-6-yl)-amine HCl salt] | /* (compound exhibited 0-25% inhibition at 10 μM)
CC(C)(C)c1ccc(Nc2ncnc3c2CN(c2ncccc2Cl)CC3)cn1 [Compound 17, (6-tert-Butyl-pyridin-3-yl)-[6-(3-chloro-pyridin-2-yl)-5,6,7,8-tetrahydro-pyrido[4,3-d]pyrimidin-4-yl]-amine] | /* (compound exhibited 0-25% inhibition at 10 μM)
Cc1ccc(N2CCc3ncnc(NCC4(O)CCCC(C)(C)C4)c3C2)nc1 (stereo not drawn) [Compound 18, 3,3-Dimethyl-1-{[6-(5-methyl-pyridin-2-yl)-5,6,7,8-tetrahydro-pyrido[4,3-d]pyrimidin-4-ylamino]-methyl}-cyclohexanol] | /* (compound exhibited 0-25% inhibition at 10 μM)
Cc1ccc(N2CCc3ncnc(NCc4ccccc4C)c3C2)nc1 [Compound 24] | /**** (compound exhibited 25-50% inhibition at 10 μM)
Cc1ccc(N2CCc3ncnc(NCC4CCCCC4)c3C2)nc1 [Compound 26] | /**** (compound exhibited 25-50% inhibition at 10 μM)
COc1ccccc1CNc1ncnc2c1CN(c1ccc(C)cn1)CC2 [Compound 27] | /**** (compound exhibited 25-50% inhibition at 10 μM)
COc1cccc(CNc2ncnc3c2CN(c2ccc(C)cn2)CC3)c1 [Compound 28] | **** (compound exhibited 25-50% inhibition at 10 μM)
Cc1ccc(N2CCc3ncnc(NCCc4ccccc4Cl)c3C2)nc1 [Compound 32] | **** (compound exhibited 25-50% inhibition at 10 μM)
